Data as given in patent publication US4801616A, “Diphenylmethanone compounds and anti-inflammatory use thereof” (Eli Lilly and Company, priority 1986, dated 1989).

Each molecule was assayed against T1, fatty acid cyclooxygenase (Homo sapiens, UniProt P23219) (assay: Fatty Acid Cyclooxygenase (FCO) Assay, inhibition of PGE2 formation by purified human platelet enzyme). Settings: human platelet microsomal enzyme, pH 8.0, 37° C.
T1 construct: The solubilized fatty acid cyclooxygenase was applied to a 440 ml electrofocusing column; from tissue; host or cells: human platelets: microsomes solubilized with Triton X-100, purified by electrofocusing and G-200 Sephadex
T1 sequence (P23219 24-599): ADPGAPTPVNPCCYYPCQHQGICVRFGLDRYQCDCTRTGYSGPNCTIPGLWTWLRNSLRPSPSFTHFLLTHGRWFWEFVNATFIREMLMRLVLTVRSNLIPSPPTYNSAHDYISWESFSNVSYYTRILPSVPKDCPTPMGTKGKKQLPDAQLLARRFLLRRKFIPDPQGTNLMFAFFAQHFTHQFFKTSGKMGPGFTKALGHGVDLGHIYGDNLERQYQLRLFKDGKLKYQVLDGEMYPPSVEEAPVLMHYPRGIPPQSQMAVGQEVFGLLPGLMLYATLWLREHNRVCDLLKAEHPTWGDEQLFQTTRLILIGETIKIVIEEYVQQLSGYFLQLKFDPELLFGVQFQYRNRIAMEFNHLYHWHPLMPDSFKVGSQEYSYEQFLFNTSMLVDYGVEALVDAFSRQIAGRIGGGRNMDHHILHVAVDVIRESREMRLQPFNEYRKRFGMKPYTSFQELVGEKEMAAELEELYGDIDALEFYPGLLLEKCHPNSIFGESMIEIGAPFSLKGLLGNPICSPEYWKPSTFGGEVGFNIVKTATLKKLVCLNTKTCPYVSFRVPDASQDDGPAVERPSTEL
Assay type: biochemical
Experimental: Fatty Acid Cyclooxygenase (FCO) Assay
Microsomes were prepared from 185 bags of human platelets (each bag containing the platelets from one pint of blood prepared using differential centrifugation procedures). The platelets from approximately 60 bags were prepared at one time. Platelet-rich plasma (500 g) was centrifuged at 10,000×g for 20 minutes, and the platelet pellet was suspended in 100 ml of 0.1M potassium phosphate buffer, pH 8.0, with a Teflon glass homogenizer and sonicated for 5.0 minutes with a Bronson Sonifier (Model 350) in a rosette flask cooled in ice water. Disrupted platelets were centrifuged 15 minutes at 10,000× g. The supernatant was centrifuged at 100,000× g for 90 minutes and the microsomal pellets were homogenized in 25 ml of 20% sucrose containing 1.0% Triton X-100 detergent. After 30 minutes at 4° C., the solubilized microsomes were centrifuged at 100,000× g for 60 minutes. The yellow supernatant was removed and stored at -70 ° C.
The solubilized fatty acid cyclooxygenase was applied to a 440 ml electrofocusing column (LKB-8012) containing 1% phisolytes (Brinkman Instruments, Westburgh, NY), pH 2-11, with the cathode at the top of the column. The enzyme was layered onto the column at the appropriate time so that its sucrose concentration was equal to that of the column gradient. This was accomplished by checking the gradient concentration periodically with a sucrose hand refractometer. Electrofocusing was carried out for 16 hours with an initial voltage of 400 V and a final voltage of 900-1,000 volts. Fractions were collected (20 ml) and assayed for PGE2 formation. Active peak fractions were pooled and concentrated by ultrafiltration (XM 100A) to a volume of 3-5 ml.
Active fractions from electrofocusing were applied to a G-200 Sephadex column (2 cm×46 cm) and eluted with 10 mM potassium phosphate buffer, pH 7.0, in 5 ml fractions. After assay, active fractions were poored and concentrated to 1.0 ml by ultrafiltration (XM 100A), and kept frozen at -70° C.
Enzyme activity was determined by assaying for PGE2 formation by preincubating the enzyme with 10 mmol/l imidazole phosphate buffer, pH 8.0, 2 mmol/l epinephrine, 2 mmol/l methemoglobin, and the test compound (30 μg/ml) in a total volume of 0.2 ml for one minute at 37° C. After preincubation, 5 mmol/l ^14 C-arachidonic acid were added and the mixture was incubated an additional 0.5 minutes at 37° C. The enzyme reaction was stopped by the addition of 2 μl of indomethacin (2 mg/ml) in alcohol.
The reaction mixture was spotted (50 μl) on a silica gel (LQ6D) plate and subjected to TLC. The solvent system consisted of chloroform-methanol-glacial acetic acid (90:5:5, v/v/v) and the relative mobilities were PGF2α =0.235, and PGE2 =0.47. The silica gel on the plate was scraped in 1 cm sections, suspended in 5 ml of the scintillation fluid [5.88 g of 2,5-diphenyloxazole and 118 mg of 1,4 -bis(5-phenyloxazol-2-yl)benzene] dissolved in 650 ml of toluene and 350 ml of Triton X-100) and the radioactivity was determined in an Isocap/300 liquid scintillation counter (Searle Analytic, Inc., Southfield, Mich.). Another 50 μl of the mixture was added to 10 ml of the Triton X-100 based scintillation fluid, and the radioactivity was determined so that the amount of radioactivity recovery from the TLC plate could be ascertained. PGE2 formation for each test compound was determined as a percent of control experiments wherein no test compound was added. Data is expressed in Table I either as the percent inhibition of formation of PGE2 at a test compound concentration of 30 μ g/ml, or as an IC50 for inhibition of PGE2 formation.

IC50	Structure (SMILES)
1.1 µM	CCCc1c(O)ccc(C(=O)c2ccccc2O)c1O [Example 4, (2,4-Dihydroxy-3-propylphenyl)(2hydroxyphenyl)methanone]
84.9 µM	CCCc1c(OCCCCC#N)ccc(C(=O)c2ccccc2O)c1O [Example 11, 5-[3-Hydroxy-4-(2-hydroxybenzoyl)-2-propylphenoxy]pentanenitrile]
12.7 µM	CCCc1c(OCCCCCCc2nnn[nH]2)ccc(C(=O)c2ccccc2O)c1O [Example 25, (2-Hydroxyphenyl)[2-hydroxy-3-propyl-4-([6-(1H-tetrazol-5-yl)hexyl]oxy)phenyl]methanone]
12.2 µM	CCCc1c(OCCCCCCCCc2nnn[nH]2)ccc(C(=O)c2ccccc2O)c1O [Example 28, (2-Hydroxyphenyl)[2-hydroxy-3-propyl-4-([8-(1H-tetrazol-5-yl)octyl]oxy)phenyl]methanone]
121 µM	CCCc1c(OCCCCC(=O)O)ccc(C(=O)c2ccccc2O)c1O [Example 30, 5-[3-Hydroxy-4-(2-hydroxybenzoyl)-2-propylphenoxy]pentanoic acid]

Same assay, conditions: percent inhibition at 30 μg/ml

Structure (SMILES)	inhibition at 30 µg/mL
COc1ccccc1C(=O)c1ccc(OC)c(C)c1O [Example 9, (2-hydroxy-4-methoxy-3-methylphenyl)(2-methoxyphenyl)methanone]	35%
CCCc1c(OCCCCc2nnn[nH]2)ccc(C(=O)c2ccccc2OC)c1O [Example 23, (2-Hydroxy-3-propyl-4-[4-(1H-tetrazol-5-yl)butoxy]phenyl)(2-methoxyphenyl)methanone]	17%
CCCc1c(OCCCCc2nnn[nH]2)ccc(C(=O)c2ccccc2O)c1O [Example 26, (2-Hydroxyphenyl)(2-hydroxy-3-propyl-4[4-(1H-tetrazol-5-yl)butoxy]phenyl)methanone]	44%
